Data taken from ChEMBL document CHEMBL4739717, “Methods of treating cartilage disorders through inhibition of clk and dyrk” (2020).

Key:
[1] = Induction of chondrogenesis in human MSC assessed as maximum activity at 10 nM incubated for 6 days by rhodamine B and Nile red staining based imaging analysis relative to control; assay type: functional; details: BMMSC, 144 h, time 6 day
[2] = Induction of chondrogenesis in human MSC assessed as incubated for 6 days by rhodamine B and Nile red staining based imaging analysis; assay type: functional; details: bmmsc
[3] = molecular target: Dual specificity tyrosine-phosphorylation-regulated kinase 1A (Homo sapiens, UniProt Q13627); assay: Inhibition of recombinant DYRK1A (unknown origin) using Ser/Thr 18 peptide as substrate incubated for 1 hr in presence of ATP by FRET assay
[4] = Effect on Wnt signaling pathway in human SW480 cells harbouring TCF/LEF luciferase reporter gene and SP5-Luc reporter gene incubated for 36 to 48 hrs by luminescence assay; assay type: cell-based

SMILES | Emax at 0.01 µM [1] | EC50 [2] | EC50 [3] | EC50 [4]
Cc1ncc(-c2cnc3[nH]nc(-c4cc5c(-c6ccncc6)cncc5[nH]4)c3c2)n1C | 194% | 0.01 µM | 0.028 µM | > 10 µM
CC(C)C(=O)Nc1cncc(-c2cc3c(-c4cc5c(-c6cc(F)cc(CNS(C)(=O)=O)c6)nccc5[nH]4)n[nH]c3cn2)c1 | 79.5% | 0.03 µM | 0.027 µM | > 10 µM
c1cncc(-c2ccc3[nH]nc(-c4cc5cccnc5[nH]4)c3n2)c1 | 65.9% | 0.01 µM | 0.024 µM | > 10 µM
CC(C)Nc1cncc(-c2cnc3[nH]nc(-c4cc5c(-c6cccnc6)ccnc5[nH]4)c3c2)c1 | 135% | 0.01 µM | 0.018 µM | > 10 µM
c1cnc2[nH]c(-c3n[nH]c4ccc(-c5cncc(CN6CCCCC6)c5)cc34)cc2c1 | 50.8% | 0.01 µM | 0.004 µM | 1.67 µM
CC(C)Nc1cncc(-c2ccc3[nH]nc(-c4cc5c(-c6cccnc6)cccc5[nH]4)c3c2)c1 | 226% | 0.01 µM | 0.083 µM | 0.1 µM
CC(C)(C)CC(=O)Nc1cncc(-c2ccc3[nH]nc(-c4nc5ccncc5[nH]4)c3n2)c1 | 54.1% | 0.01 µM | 0.021 µM | > 10 µM
CC(C)CC(=O)Nc1cncc(-c2ccc3[nH]nc(-c4nc5c(-c6ccc(Cl)s6)cncc5[nH]4)c3n2)c1 | 60.6% | 0.01 µM | 0.072 µM | 1.48 µM
CN(C)Cc1cncc(-c2ccc3[nH]nc(-c4cc5c(-c6cccnc6)cccc5[nH]4)c3n2)c1 | 35.9% |  | 0.082 µM | 0.415 µM
CCCCC(=O)Nc1cncc(-c2cc3c(-c4cc5cnccc5[nH]4)n[nH]c3cn2)c1 | 49.9% |  | 0.002 µM | 3.57 µM
COc1cncc(C(=O)Nc2c[nH]nc2C(=O)Nc2ccc(N3CCNCC3)nc2)c1 | 90.7% |  | 0.007 µM | 0.681 µM
CN1CCN(c2cncc3[nH]c(-c4n[nH]c5ccc(-c6cncc(N)c6)nc45)nc23)CC1 | 64.6% | 0.03 µM | 0.009 µM | > 10 µM
c1cncc(-c2cc3c(-c4cc5cnccc5[nH]4)n[nH]c3cn2)c1 | 62% | 0.03 µM | 0.002 µM | 0.133 µM
O=C(Nc1cncc(-c2ccc3[nH]nc(-c4cc5c(-c6cccnc6)cncc5[nH]4)c3c2)c1)C1CCCC1 | 45.5% |  | 0.024 µM | 1.35 µM
O=C(Nc1cncc(-c2ccc3[nH]nc(-c4nc5c(-c6ccccc6F)cccc5[nH]4)c3n2)c1)C(F)(F)F | 40.1% |  | 0.03 µM | 0.823 µM
CCNCc1cncc(-c2cnc3[nH]nc(-c4nc5c(-c6cccc(F)c6)cccc5[nH]4)c3c2)c1 | 98.7% |  | 0.048 µM | 0.0409 µM
CCNCc1cncc(-c2cnc3[nH]nc(-c4cc5c(-c6cccnc6)ccnc5[nH]4)c3c2)c1 | 91.8% | 0.01 µM | 0.026 µM | > 10 µM
CCCCC(=O)Nc1cncc(-c2ccc3[nH]nc(-c4cc5cccnc5[nH]4)c3c2)c1 | 34.1% |  | 0.017 µM | 0.324 µM
CC(C)Nc1cncc(-c2cnc3[nH]nc(-c4cc5c(-c6ccccc6F)nccc5[nH]4)c3c2)c1 | 75.8% | 0.01 µM | 0.044 µM | 0.435 µM
CC(C)C(=O)Nc1cncc(-c2cc3c(-c4cc5c(N6CCN(C)CC6)cccc5[nH]4)n[nH]c3cn2)c1 | 36.4% |  | 0.026 µM | 0.7 µM
c1cncc(-c2cc3c(-c4nc5c(-c6cccnc6)nccc5[nH]4)n[nH]c3cn2)c1 | 44.5% |  | 0.029 µM | 0.0283 µM
CN(C)CCNc1cc(F)cc(-c2cccc3[nH]c(-c4n[nH]c5ccc(-c6cncnc6)nc45)cc23)c1 | 181% | 0.01 µM | 0.075 µM | 0.42 µM
FC1(F)CCN(Cc2cncc(-c3cc4c(-c5cc6cccnc6[nH]5)n[nH]c4cn3)c2)C1 | 45.3% |  | 0.012 µM | 1.35 µM
Clc1ccc(-c2cncc3[nH]c(-c4n[nH]c5ccc(-c6cncc(CN7CCCC7)c6)nc45)nc23)s1 | 62% | 0.01 µM | 0.054 µM | 3.33 µM
CCCCC(=O)Nc1cncc(-c2cc3c(-c4cc5c(-c6cc(F)cc(CNS(C)(=O)=O)c6)nccc5[nH]4)n[nH]c3cn2)c1 | 111% | 0.01 µM | 0.062 µM | > 10 µM
CC(C)Nc1cncc(-c2ccc3[nH]nc(-c4nc5c(-c6ccccc6F)cncc5[nH]4)c3c2)c1 | 56.8% |  | 0.036 µM | 0.001 µM

SMILES | Emax at 0.01 µM [1] | EC50 [2] | EC50 [3] | EC50 [4]
CC(C)CC(=O)Nc1cncc(-c2ccc3[nH]nc(-c4nc5c(-c6cccs6)cncc5[nH]4)c3c2)c1 | 53.3% |  | 0.019 µM | 0.0001 µM
CN1CCN(c2nccc3[nH]c(-c4n[nH]c5cnc(-c6cncc(NC(=O)c7ccccc7)c6)cc45)cc23)CC1 | 67% | 0.01 µM | 0.004 µM | 2.8 µM
CCCCC(=O)Nc1cncc(-c2ccc3[nH]nc(-c4nc5c(-c6ccoc6)cncc5[nH]4)c3n2)c1 | 73.6% | 0.01 µM | 0.092 µM | > 10 µM
CCC(=O)Nc1cncc(-c2cnc3[nH]nc(-c4cc5c(-c6cccnc6)cccc5[nH]4)c3c2)c1 | 671% | 0.01 µM | 0.013 µM | 0.18 µM
Cc1ccncc1-c1cnc2[nH]nc(-c3nc4c(-c5cc(F)cc(CNS(C)(=O)=O)c5)nccc4[nH]3)c2c1 | 92.8% | 0.01 µM | 0.084 µM | 0.124 µM
CN(C)CCNc1cc(F)cc(-c2cccc3[nH]c(-c4n[nH]c5cnc(-c6cncc(O)c6)cc45)cc23)c1 | 66.4% | 0.01 µM | 0.06 µM | 0.405 µM
CS(=O)(=O)NCc1cc(F)cc(-c2cncc3[nH]c(-c4n[nH]c5ccc(-c6cncc(NC(=O)C7CC7)c6)nc45)cc23)c1 | 82.9% | 0.01 µM | 0.053 µM | 1.3 µM
CCCC(=O)Nc1cncc(-c2cc3c(-c4cc5c(-c6cc(F)cc(NCCN(C)C)c6)ccnc5[nH]4)n[nH]c3cn2)c1 | 162% | 0.01 µM | 0.039 µM | > 10 µM
CS(=O)(=O)NCc1cc(F)cc(-c2cncc3[nH]c(-c4n[nH]c5ncc(-c6cncc(CN7CCCCC7)c6)cc45)cc23)c1 | 22.7% |  | 0.021 µM | 1.85 µM
O=C(CC1CCNCC1)Nc1cncc(-c2cc3c(-c4nc5c(-c6cccc(F)c6)ccnc5[nH]4)n[nH]c3cn2)c1 | 54.7% |  | 0.005 µM | 0.345 µM
CN(C)Cc1cncc(-c2ccc3[nH]nc(-c4nc5c(-c6cccc(F)c6)cncc5[nH]4)c3n2)c1 | 16.7% |  | 0.062 µM | 1.05 µM
CN(C)Cc1cncc(-c2ccc3[nH]nc(-c4cc5cccnc5[nH]4)c3n2)c1 | 37% |  | 0.042 µM | > 10 µM
CCC(=O)Nc1cncc(-c2ccc3[nH]nc(-c4cc5c(-c6cccc(F)c6)nccc5[nH]4)c3c2)c1 | 16.2% |  | 0.018 µM | 0.045 µM
CS(=O)(=O)NCc1cc(F)cc(-c2cncc3[nH]c(-c4n[nH]c5cnc(-c6cncc(NC(=O)C7CCC7)c6)cc45)cc23)c1 | 15.5% |  | 0.032 µM | > 10 µM
O=C(Nc1cncc(-c2cc3c(-c4nc5c(-c6cccs6)nccc5[nH]4)n[nH]c3cn2)c1)C1CC1 | 68.3% |  | 0.035 µM | 0.0222 µM
Fc1ccc(-c2cncc3[nH]c(-c4n[nH]c5ncc(-c6cncnc6)cc45)cc23)cc1 | 23.8% |  | 0.021 µM | 0.594 µM
c1cc(-c2ccoc2)c2cc(-c3n[nH]c4ccc(-c5cncc(CNCC6CCCC6)c5)nc34)[nH]c2c1 | 25.3% |  | 0.059 µM | 3.64 µM
CC(C)CC(=O)Nc1cncc(-c2cnc3[nH]nc(-c4cc5c(-c6cccnc6)ccnc5[nH]4)c3c2)c1 | 43.5% |  | 0.005 µM | > 10 µM
CC(C)CC(=O)Nc1cncc(-c2ccc3[nH]nc(-c4cc5c(N6CCN(C)CC6)ccnc5[nH]4)c3n2)c1 | 49.5% |  | 0.005 µM | 3.45 µM
CN1CCN(c2nccc3[nH]c(-c4n[nH]c5cnc(-c6cncc(N)c6)cc45)cc23)CC1 | 49.8% |  | 0.016 µM | > 10 µM
c1cncc(-c2ccc3[nH]nc(-c4cc5c(-c6cccnc6)ccnc5[nH]4)c3c2)c1 | 16.7% |  | 0.034 µM | > 10 µM
c1cncc(-c2cnc3[nH]nc(-c4cc5cccnc5[nH]4)c3c2)c1 | 11% |  | 0.009 µM | 1.06 µM
CC(C)CC(=O)Nc1cncc(-c2cc3c(-c4nc5c(-c6ccoc6)cccc5[nH]4)n[nH]c3cn2)c1 | 58% |  | 0.038 µM | 0.0553 µM
CC(C)CC(=O)Nc1cncc(-c2ccc3[nH]nc(-c4cc5c(-c6cc(F)cc(CNS(C)(=O)=O)c6)nccc5[nH]4)c3n2)c1 | 33.1% |  | 0.014 µM | 0.479 µM
CN1CCN(c2ccnc3[nH]c(-c4n[nH]c5ccc(-c6cncc(N)c6)nc45)nc23)CC1 | 46.9% |  | 0.093 µM | > 10 µM
CCCC(=O)Nc1cncc(-c2cnc3[nH]nc(-c4cc5c(-c6cc(F)cc(CNS(C)(=O)=O)c6)cncc5[nH]4)c3c2)c1 | 36.7% |  | 0.014 µM | 1.68 µM
